Tests used:
[1] = solubility testing of baricitinib in osmotic pump vehicles; assay type: physicochemical
[2] = acute effects of four days daily baricitinib on blood and lymphoid organs; assay type: in vivo, B6 mice
Excerpt: FIG. 16A-FIG. 16G. […] The color scheme in the legend (upper-right) is used throughout the figure. (A and B) Complete blood counts (A) and organ cellularity of spleen and bone marrow (B). (C) Proportions of HSPC subsets in bone marrow. (D) Absolute B, T, and myeloid (Gr1+ and/or CD11b+) cell counts in spleen, blood, and bone marrow. (E) Frequencies of FoxP3+ Tregs (relative to total CD4+ T cells) in spleen, blood and bone marrow. (F and G) Cell surface phenotyping of splenic T cells (F) and APCs (G). Data points and error bars represent mean±SEM, with mice pooled across 3 experiments. For statistical comparison: ns=not significant, * is p<0.05, ** is p<0.01, *** is p<0.001, and **** is p<0.0001.
(§1) Immediately prior to injection, these DMSO stocks were thawed, diluted 1:10 in PBS, and injected at 200 μl/mouse subcutaneously (400 μg daily dose).

[3] = tested on: αCD3-stimulated B6 T cells; assay: αCD3-stimulated CFSE-labeled T cell culture; assay type: cell-based, mouse; details: 72 hours, highest tested dose
Protocol: FIG. 4A-FIG. 4E. […] (B) Donor chimerism in spleen and bone marrow of mice from panel (A). […] (D) Proliferation and viability of cultures in (C). (E) Cytokines present in supernatants collected from cultures described in (C) after 24 hours incubation. For (C-E), data from three technical replicates are shown from one representative of four experiments. For all panels, data points and error bars represent mean±SEM.
For ex vivo stimulation of primary mouse T cells, 1×10^5 T cells purified from spleen and lymph nodes with the EasySep Mouse T cell Isolation Kit (Stem Cell Technologies; Vancouver, BC, Canada) were cultured with 4×10^5 T-depleted splenocytes in 96-well round bottom plates in R10 media with 1 μg/mL αCD3. Supernatants were collected for cytokine analysis after 24 hours incubation, and cultured cells were analyzed for expansion by flow cytometry at 72 hours.
Cytokine concentrations in culture supernatant or mouse plasma were measured with the LegendPLEX Inflammation Panel (13-plex) or the Mouse Th1 Panel (5-plex) per the manufacturer protocols (BioLegend). Quantification was done using LegendPLEX software v8.0 for Windows. If a cytokine concentration was too low to be quantified, the sample was assigned the value of the lower limit of quantitation. […]

[4] = tested on: IL-15-stimulated B6 splenic NK cells; assay: functional assays of cytokine-stimulated splenic NK cells; assay type: cell-based, mouse
Protocol: FIG. 5A-FIG. 5H. […] Data points and error bars represent mean±SEM.
Cytokine concentrations in culture supernatant or mouse plasma were measured with the LegendPLEX Inflammation Panel (13-plex) or the Mouse Th1 Panel (5-plex) per the manufacturer protocols (BioLegend). Quantification was done using LegendPLEX software v8.0 for Windows. If a cytokine concentration was too low to be quantified, the sample was assigned the value of the lower limit of quantitation. For intracellular IFNγ analysis of splenic NK cells, cells were cultured in K10 media with or without cytokine stimulation for 15 hours, with 5 μg/mL Brefeldin A (BioLegend) added to each well for the last 2.5 hours. After this incubation period, cells were fixed, saponin-permeabilized, and stained as described above.

[5] = MHC-mismatched haploidentical allo-HSCT (CB6F1→B6); assay type: in vivo, mouse
Protocol: (§2) To investigate the efficacy of ADCs for allo-HSCT conditioning, two transplant models were used (see e.g., FIG. 2A): a miHA-mismatched BALB/c-Ly5.1→DBA/2 model and a haploidentical CB6F1→B6 (F1-to-parent) model MHC-mismatched for H-2d in the host-versus-graft direction. CD45-SAP was chosen for conditioning in these studies to leverage its lymphodepleting activity to overcome graft rejection.
(§3) Mice were injected with CD45-SAP or cKit-SAP at doses indicated in each figure at 7 days pre-transplant (d-7). In general, 3 mg/kg (75 μg) CD45-SAP, and 0.4 mg/kg or 2 mg/kg (10 or 50 μg, respectively) cKit-SAP were used. On transplant day (d0), mice received 10×10^6 whole donor bone marrow cells via the retroorbital injection.
(§4) CD4^+ and CD8^+ T cell depletion was done using clones GK1.5 and YTS169.4, respectively, and NK cell depletion done using clone PK136. […] All antibodies were administered intraperitoneally at 250 μg per dose following the schema for each experiment.
as §1
ALZET subcutaneous osmotic pumps (Model 2004) were used to continuously deliver JAK1/2 inhibitors to mice for 28 days at a rate of 0.25 μL/hour (6 μL/day). A vehicle of 50% dimethyl sulfoxide (DMSO)/50% polyethylene glycol 400 (PEG-400) was used for all experiments. JAK1/2 inhibitors were prepared at 2× concentration (133.3 mg/mL) in 100% DMSO then diluted to 1× with an equal volume of PEG-400 (66.7 mg/mL, 400 μg total daily dose). Prepared compounds were then loaded into osmotic pumps per the manufacturer's instructions and surgically implanted in accordance with our IACUC-approved protocol.

[6] = minor- and major-mismatched alloHSCT models, summary statements; assay type: in vivo, mouse
Excerpt: This example describes the combination of JAK1/JAK2 (JAK1/2) inhibitors and CD45-ADC.

[7] = fully MHC-mismatched allo-HSCT (BALB/c→B6), preliminary; assay type: in vivo, mouse; details: continuous baricitinib plus CD45-SAP conditioning, preliminary (not shown)
Excerpt: Continued optimization of our conditioning regimens aims to achieve robust, high-level engraftment in fully haploidentical (F1-to-F1) and fully MHC-mismatched allo-HSCT.

[8] = tested on: NK cell-mediated rejection; assay: parent-to-F1 allo-HSCT (B6→CB6F1), NK cell-mediated rejection; assay type: in vivo, mouse; details: CD45-SAP plus baricitinib
Protocol: as §3, §4, §1

[9] = miHA-mismatched allo-HSCT (BALB/c-Ly5.1→DBA/2); assay type: in vivo, mouse; details: CD45-SAP conditioning plus daily baricitinib
Protocol: as §2, §3, §4, §1

[10] = CD45-ADC single dose d-7 plus baricitinib for 3-4 weeks

SMILES: CCS(=O)(=O)N1CC(CC#N)(n2cc(-c3ncnc4[nH]ccc34)cn2)C1 [baricitinib]
- solubility ([1]; DMSO mixed 1:1 with PEG-400): readily soluble
- solubility after incubation ([1]; DMSO/PEG-400 vehicle, 30-day incubation at 37° C.): remained soluble
- immunophenotyping of splenic T cell and APC compartments ([2]; baricitinib- vs vehicle-treated): no differences
- B cells in spleens ([2]; daily baricitinib 4 days): lower frequencies of B cells
- CBCs or bone marrow cellularity ([2]; daily baricitinib 4 days): minimally affected
- bone marrow HSPC numbers ([2]; daily baricitinib 4 days): largely unaffected
- spleen cellularity ([2]; daily baricitinib 4 days): significant reduction
- frequencies of long-term HSC and megakaryocyte-erythroid progenitors ([2]; daily baricitinib 4 days, bone marrow): somewhat lower frequencies
- cell death in unstimulated cultures [3]: only subtly increased
- nonspecific toxicity in unstimulated NK cultures [4]: modest and noted only at the highest baricitinib doses
- overall donor chimerism ([5]; CD45-SAP plus continuously-infused baricitinib (osmotic pump, 400 μg daily)): > 80%
- overall donor chimerism ([5]; CD45-SAP, daily baricitinib and pre-transplant pan-TCD): > 90%
- engraftment rate ([5]; continuous baricitinib plus CD45-SAP): ~70%
- donor chimerism [6, 10]: up to 90%
- share of treated mice achieving the donor chimerism [6, 10]: at least 70 % of the mice
- donor chimerism, multilineage alloengraftment ([6]; CD45-targeted ADCs combined with baricitinib): 80-90%
- engraftment success [7]: ~25%
- overall donor chimerism [8]: ~60%
- overall multilineage donor chimerism of engrafted mice [9]: ~80%

Source: patent US12496303B2, “Conditioning agents for use in allogeneic hematopoietic stem cell transplantation” (priority 2020, dated 2025)
